Assays:
[1] = tested on: acute hippocampal slices; assay: Low Mg2+-induced injury of acute hippocampal slices, LDH release; assay type: cell-based; conditions: aCSF without Mg2+ plus 100 μM amiloride for 2 hr, medium collected 6 hr after incubation
Method: To determine whether ASIC blockade affects seizure-induced neuronal injury, we tested the effect of ASIC blockade on low Mg^2+-induced injury of acute hippocampal slices. 400 μm-thick coronal slices were cut and placed on a Millipore membrane in 6-well plates (2 slices in each well). Slices were randomly divided into three groups treated with the following different solutions (for 2 hr): oxygenated aCSF with normal Mg^2+; oxygenated aCSF without Mg^2+; oxygenated aCSF without Mg^2+ plus 100 μM amiloride. 100 μL medium was collected from each slice 6 hr following the incubation for the measurement of lactate dehydrogenase (LDH). The LDH value was then normalized to the maximal releasable LDH to give % of cell death. With aCSF containing normal Mg^2+, 6.2±0.9% of maximal LDH release was recorded. In the absence of Mg^2+, this value was increased to 13.0±2.2%. Addition of aniloride decreased relative LDH release to 6.0±0.4% (n=3).
LDH Assay. Lactate dehydrogenase (LDH) is a stable cytoplasmic enzyme present in all cells. […] LDH assays were performed using the Cytotoxicity Detection Kit (Cat#1644793, Roche Molecular Biochemicals) and a spectrophotometric mutiwell plate reader (SPECTRAmax, Molecular Devices). […] Absorbance at OD490 nm was measured 30 min after the reaction. Absorbance at a reference wavelength (OD620 nm) was subtracted from the measurement.

[2] = tested on: C57BL/6 mice; assay: In vivo kainic acid (KA)-induced seizure model, EEG and TUNEL staining; design: species or system mouse
Method: In an in vivo model of epilepsy (Araki et al., 2002), WT and ASIC1^−/− C57BL/6 mice. 20-25 g, had unilateral microinjection of kainic acid (KA) into the basolateral amygdala nucleus. […] Identical KA injection in ASIC1^−/− mice produced attenuated polyspike EEG activity (total duration: 109.8±30.8 sec, n=6, p<0.01 versus WT control, FIG. 8D).
TUNEL staining. Following cryostat sectioning, slices were air-dried, fixed in 10% formalin for 15 min, washed three times in PBS, permeabilized in 3% Triton X-100 for 20 min, and washed three times in PBS. Slices were subsequently incubated with a reaction mixture that contained FITC-dUTP and 300 U/mL terminal deoxy-transferase (TdT) for 90 min at 37° C. Cultures were then viewed with a fluorescent microscope at an excitation/emission wavelength of 500/550 nm (green) for FITC-TUNEL labeled cells.
Intracerebroventricular injection in mice. The procedure was performed as described in our previous studies (Pignataro et al., 2007; Xiong et al., 2004). A burr hole was drilled through the skull and a cannula inserted in the right lateral ventricle. The cannula was inserted stereotactically at 0.5 mm posterior, 1.0 mm lateral, and 3.0 mm ventral to the bregma, 0.5 μL of aCSF, amiloride, or PcTX1 was infused 60 min before KA injection.
In vivo KA-induced seizure model. A KA-induced in vivo seizure model was implemented as described in our previous studies (Araki et al., 2002). The protocol for seizure-induction in vivo in mice was approved by the Institutional Animal Care and Use Committee of Legacy Research. Adult male wild-type and ASIC1^−/− mice with genomic background of C57BL/6, 20-25 g in weight, were used for seizure induction by unilateral microinjection of KA into the basolateral amygdala nucleus based on stereotactic coordinates (AP −0.94 mm, L −2.85 mm, and V −3.75 mm relative to the Bregma). After anesthesia and catheterization of the femoral vein, animals were placed in a stereotactic frame modified with a headpiece compatible for the mouse (Kopf Instruments) and kept under anesthesia using a mixture of 68.5% N2O, 30% O2, and 1.5% isoflurane. Rectal body temperature was kept at 37±1° C. during and after the operation using either a heating pad or heating lamp (Harvard Instruments, Holiiston, Mass.). Using dental cement (Plastics One, Inc.), three skull-mounted recording electrodes were affixed to mice (Plastics One, Inc., Roanoke, Va.) and a 26-gauge steel guide cannula over the intact dura. […] The EEG was monitored for 30 min using a Grass Electroencephalogram (Model 8-16), and lorazepam (6 mg/kg, i.p.) Was then administered to terminate seizures. The EEG was further monitored for up to 30 min to ensure seizure cessation. The duration of polyspike (type 4) EEG activity for each mouse was calculated blind offline. […]

[3] = icv 0.5 μL aCSF containing PcTX1 500 ng/mL, 60 min before KA
[4] = icv PcTX1 500 ng/mL, 24 hr after KA injection

Molecule	relative LDH release (% of maximal releasable LDH, cell death) [1] [%]	duration of polyspike (type-4) EEG activity in 30 min [2, 3] [s]	mice showing polyspike EEG activity [2, 3]	average TUNEL positive cells in CA3 [2, 4]	mice showing any CA3 injury [2, 4]
NC(N)=NC(=O)c1nc(Cl)c(N)nc1N [amiloride, 3,5-diamino-6-chloro-N(diaminomethylidene)pyrazine-2-carboxamide]	6.0±0.4				
Psalmotoxin 1 [PcTX1]		128.3 ± 60.3	two out of six	21.8±14.1	two out of six
